Measurements as given in patent publication US20240327408A1, “COMPOUNDS CONTAINING TETRAHYDRONAPHTHYRIDINONE OR TETRAHYDROPYRIDOPYRIMIDINONE SKELETON, PREPARATION METHOD THEREFOR AND PHARMACEUTICAL USE THEREOF” (CHINA PHARMACEUTICAL UNIVERSITY, priority 2021, published 2024).

How the values were obtained:
hClpP = molecular target: T1, hClpP (Homo sapiens, UniProt Q16740); experiment: activating ClpP hydrolysis of FITC-casein (fluorescence kinetic detection); type: biochemical; details: hClpP 1 μM, FITC-Casein 4 μM, 37° C.
T1 construct: made in house
T1 sequence (Q16740 57-277): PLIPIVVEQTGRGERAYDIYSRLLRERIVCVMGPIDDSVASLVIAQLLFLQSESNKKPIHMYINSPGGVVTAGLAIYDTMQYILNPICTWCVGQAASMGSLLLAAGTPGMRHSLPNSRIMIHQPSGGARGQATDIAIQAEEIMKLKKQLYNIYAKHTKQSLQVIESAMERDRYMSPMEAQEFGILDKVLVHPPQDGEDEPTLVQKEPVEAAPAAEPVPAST
Summary of the method: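 hClpP at 1 μM final preincubated with compounds (assay-buffer dilutions 200 μM–2 nM, before mixing) 30 min at 37 °C, then 4 μM final FITC-casein added. Fluorescence read kinetically at 37 °C every 1 min for 15 min, duplicate wells.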

MV4; 11 cells = experiment: inhibiting the growth of MV4; 11 cells; type: cell-based; details: Homo sapiens

Compound	EC50 (hClpP)	IC50 (MV4; 11 cells)
O=c1c2c(c3cccnc3n1Cc1ccccc1)CCN(CC1CCCCC1)C2 [Compound I-4, 6-benzyl-3-(cyclohexylmethyl)-2,3,4,6-tetrahydropyrido[3,4-c][1,8]naphthyridine-5-(1H)-one]	10000 to 100000 nM	< 1000 nM
Cc1noc(C)c1CN1CCc2c(c(=O)n(Cc3ccccc3)c3ncccc23)C1 [Compound I-34, 6-benzyl-3-((3,5-dimethylisoxazol-4-yl)methyl)-2,3,4,6-tetrahydropyrido[3,4-c][1,8]naphthyridine-5-(1H)-one]	10000 to 100000 nM	1000 to 10000 nM
COc1cccc(CN2CCc3c(c(=O)n(Cc4ccccc4)c4ncccc34)C2)c1 [Compound I-17, 6-benzyl-3-(3-methoxybenzyl)-2,3,4,6-tetrahydropyrido[3,4-c][1,8]naphthyridine-5-(1H)-one]	1000 to 10000 nM	< 1000 nM
O=c1c2c(n3nccc3n1Cc1ccccc1)CCN(Cc1cccc(Cl)c1)C2 [Compound I-156, 4-benzyl-7-(3-chlorobenzyl)-6,7,8,9-tetrahydropyrazolo[1,5-a]pyrido[3,4-e]pyrimidine-5(4H)-one]	1000 to 10000 nM	1000 to 10000 nM
CCc1cccc(Cn2c(=O)c3c(c4cccnc42)CCN(Cc2ccccc2)C3)c1 [Compound I-50, 3-benzyl-6-(3-ethylbenzyl)-2,3,4,6-tetrahydropyrido[3,4-c][1,8]naphthyridine-5-(1H)-one]	< 1000 nM	< 1000 nM
Cc1ccc(Cn2c(=O)c3c(n4ccnc24)CCN(Cc2cccc(Cl)c2)C3)cc1 [Compound I-134, 7-(3-chlorobenzyl)-4-(4-methylbenzyl)-6,7,8,9-tetrahydroimidazo[1,2-a]pyrido[3,4-e]pyrimidine-5(4H)-one]	< 1000 nM	< 1000 nM
O=c1c2c(c3cccnc3n1Cc1ccccc1)CCN(Cc1cccc(F)c1)C2 [Compound I-12, 6-benzyl-3-(3-fluorobenzyl)-2,3,4,6-tetrahydropyrido[3,4-c][1,8]naphthyridine-5-(1H)-one]	< 1000 nM	< 1000 nM
CCc1ccc(Cn2c(=O)c3c(n4ccnc24)CCN(Cc2ccccc2)C3)cc1 [Compound I-137, 7-benzyl-4-(4-ethylbenzyl)-6,7,8,9-tetrahydroimidazo[1,2-a]pyrido[3,4-e]pyrimidine-5(4H)-one]	< 1000 nM	< 1000 nM
O=c1c2c(c3cncnc3n1Cc1ccc(C(F)(F)F)cc1)CCN(Cc1ccccc1)C2 [Compound I-81, 8-benzyl-5-(4-(trifluoromethyl)benzyl)-7,8,9,10-tetrahydropyrimidinyl[4,5-c][2,7]naphthyridine-6-(5H)-one]	< 1000 nM	< 1000 nM
COc1ccc(Cn2c(=O)c3c(c4cccnc42)CCN(Cc2ccccc2)C3)cc1 [Compound I-57, 3-benzyl-6-(4-methoxybenzyl)-2,3,4,6-tetrahydropyrido[3,4-c][1,8]naphthyridine-5-(1H)-one]	< 1000 nM	< 1000 nM
CN(C)c1ccc(Cn2c(=O)c3c(c4cccnc42)CCN(Cc2cccc(C#N)c2)C3)cc1 [Compound I-90, 6-(4-dimethylaminobenzyl)-3-(3-cyanobenzyl)-2,3,4,6-tetrahydropyrido[3,4-c][1,8]naphthyridine-5-(1H)-one]	1000 to 10000 nM	1000 to 10000 nM
N#Cc1cccc(CN2CCc3c(c(=O)n(Cc4ccc(F)cc4)c4nccn34)C2)c1 [Compound I-116, 7-(3-cyanobenzyl)-4-(4-fluorobenzyl)-6,7,8,9-tetrahydroimidazo[1,2-a]pyrido[3,4-e]pyrimidine-5(4H)-one]	< 1000 nM	< 1000 nM
O=c1c2c(c3ccsc3n1Cc1ccc(C(F)(F)F)cc1)CCN(Cc1ccccc1)C2 [Compound I-104, 7-benzyl-4-(4-trifluoromethylbenzyl)-6,7,8,9-tetrahydrothieno[2,3-C][2,7]naphthyridine-5(4H)-one]	< 1000 nM	< 1000 nM
O=c1c2c(c3cccnc3n1CC1CCCCC1)CCN(Cc1ccccc1)C2 [Compound I-39, 3-benzyl-6-(cyclohexylmethyl)-2,3,4,6-tetrahydropyrido[3,4-c][1,8]naphthyridine-5-(1H)-one]	10000 to 100000 nM	910 nM
CCc1ccccc1CN1CCc2c(c(=O)n(Cc3ccccc3)c3ncccc23)C1 [Compound I-10, 6-benzyl-3-(2-ethylbenzyl)-2,3,4,6-tetrahydropyrido[3,4-c][1,8]naphthyridine-5-(1H)-one]	1000 to 10000 nM	< 1000 nM
N#Cc1cccc(CN2CCc3c(c(=O)n(Cc4ccc(C(F)(F)F)cc4)c4ncnn34)C2)c1 [Compound I-151, 4-(4-trifluoromethylbenzyl)-7-(3-cyanobenzyl)-6,7,8,9-tetrahydropyrido[3,4-e][1,2,4]triazolo[1,5-a]pyrimidine-5(4H)-one]	1000 to 10000 nM	1000 to 10000 nM
O=c1c2c(c3cccnc3n1Cc1ccc(Cl)cc1)CCN(Cc1ccccc1)C2 [Compound I-53, 3-benzyl-6-(4-chlorobenzyl)-2,3,4,6-tetrahydropyrido[3,4-c][1,8]naphthyridine-5-(1H)-one]	< 1000 nM	< 1000 nM

Compound	EC50 (hClpP)	IC50 (MV4; 11 cells)
COc1ccccc1CN1CCc2c(c(=O)n(Cc3ccccc3)c3ncccc23)C1 [Compound I-11, 6-benzyl-3-(2-methoxybenzyl)-2,3,4,6-tetrahydropyrido[3,4-c][1,8]naphthyridine-5-(1H)-one]	1000 to 10000 nM	< 1000 nM
O=c1c2c(n3ccnc3n1Cc1ccccc1)CCN(Cc1cccc(Cl)c1)C2 [Compound I-109, 7-(3-chlorobenzyl)-4-benzyl-6,7,8,9-tetrahydroimidazo[1,2-a]pyrido[3,4-e]pyrimidine-5(4H)-one]	< 1000 nM	< 1000 nM
Cn1ccc(Cn2c(=O)c3c(c4cccnc42)CCN(Cc2ccccc2)C3)n1 [Compound I-58, 3-benzyl-6-((1-methyl-1H-pyrazol-3-yl)methyl)-2,3,4,6-tetrahydropyrido[3,4-c][1,8]naphthyridine-5-(1H)-one]	10000 to 100000 nM	1000 to 10000 nM
N#Cc1cccc(CN2CCc3c(c(=O)n(Cc4ccc(Cl)cc4)c4cncn34)C2)c1 [Compound I-167, 7-(3-cyanobenzyl)-4-(4-chlorobenzyl)-6,7,8,9-tetrahydroimidazo[1,5-a]pyrido[3,4-e]pyrimidine-5(4H)-one]	1000 to 10000 nM	1000 to 10000 nM
N#Cc1cccc(CN2CCc3c(c(=O)n(Cc4ccccc4)c4ccnn34)C2)c1 [Compound I-157, 4-benzyl-7-(3-cyanobenzyl)-6,7,8,9-tetrahydropyrazolo[1,5-a]pyrido[3,4-e]pyrimidine-5(4H)-one]	1000 to 10000 nM	1000 to 10000 nM
O=c1c2c(c3cccnc3n1Cc1ccccc1F)CCN(Cc1ccccc1)C2 [Compound I-40, 3-benzyl-6-(2-fluorobenzyl)-2,3,4,6-tetrahydropyrido[3,4-c][1,8]naphthyridine-5-(1H)-one]	1000 to 10000 nM	< 1000 nM
O=c1c2c(c3cccnc3n1Cc1ccccc1)CCN(Cc1ccccc1Br)C2 [Compound I-8, 6-benzyl-3-(2-bromobenzyl)-2,3,4,6-tetrahydropyrido[3,4-c][1,8]naphthyridine-5-(1H)-one]	1000 to 10000 nM	< 1000 nM
N#Cc1cccc(CN2CCc3c(c(=O)n(Cc4ccc(Cl)cc4)c4ncccc34)C2)c1 [Compound I-85, 6-(4-chlorobenzyl)-3-(3-cyanobenzyl)-2,3,4,6-tetrahydropyrido[3,4-c][1,8]naphthyridine-5-(1H)-one]	< 1000 nM	< 1000 nM
COc1ccc(Cn2c(=O)c3c(c4cccnc42)CCN(Cc2cccc(C#N)c2)C3)cc1 [Compound I-87, 6-(4-methoxybenzyl)-3-(3-cyanobenzyl)-2,3,4,6-tetrahydropyrido[3,4-c][1,8]naphthyridine-5-(1H)-one]	< 1000 nM	< 1000 nM
O=c1c2c(c3cccnc3n1Cc1ccccc1)CCN(Cc1ccccc1)C2 [Compound I-5, 3,6-dibenzyl-2,3,4,6-tetrahydropyrido[3,4-c][1,8]naphthyridine-5-(1H)-one]	1000 to 10000 nM	< 1000 nM
Cc1cc(Cn2c(=O)c3c(c4cccnc42)CCN(Cc2ccccc2)C3)n(C)n1 [Compound I-60, 3-benzyl-6-((1,3-dimethyl-1H-pyrazol-5-yl)methyl)-2,3,4,6-tetrahydropyrido[3,4-c][1,8]naphthyridine-5-(1H)-one]	10000 to 100000 nM	1000 to 10000 nM
O=c1c2c(c3cccnc3n1Cc1cccc(Cl)c1)CCN(Cc1ccccc1)C2 [Compound I-47, 3-benzyl-6-(3-chlorobenzyl)-2,3,4,6-tetrahydropyrido[3,4-c][1,8]naphthyridine-5-(1H)-one]	< 1000 nM	< 1000 nM
CCc1ccc(Cn2c(=O)c3c(n4ccnc24)CCN(Cc2cccc(F)c2)C3)cc1 [Compound I-138, 7-(3-fluorobenzyl)-4-(4-ethylbenzyl)-6,7,8,9-tetrahydroimidazo[1,2-a]pyrido[3,4-e]pyrimidine-5(4H)-one]	< 1000 nM	< 1000 nM
O=c1c2c(c3cccnc3n1Cc1ccccc1)CCN(Cc1cc(Cl)ccn1)C2 [Compound I-30, 6-benzyl-3-((4-chloropyridin-2-yl)methyl)-2,3,4,6-tetrahydropyrido[3,4-c][1,8]naphthyridine-5-(1H)-one]	10000 to 100000 nM	1000 to 10000 nM
O=c1c2c(c3cccnc3n1Cc1cccnc1)CCN(Cc1ccccc1)C2 [Compound I-62, 3-benzyl-6-(pyridin-3-ylmethyl)-2,3,4,6-tetrahydropyrido[3,4-c][1,8]naphthyridine-5-(1H)-one]	10000 to 100000 nM	1000 to 10000 nM
N#Cc1cccc(CN2CCc3c(c(=O)n(Cc4ccc(Cl)cc4)c4nccn34)C2)c1 [Compound I-121, 7-(3-cyanobenzyl)-4-(4-chlorobenzyl)-6,7,8,9-tetrahydroimidazo[1,2-a]pyrido[3,4-e]pyrimidine-5(4H)-one]	< 1000 nM	< 1000 nM
